# Tested on: MCH receptors
# Assay: MCH receptor activity class (method not given)
# Details: class by percent of control at 10^−7 M or IC50
row,Structure (SMILES),class
1,"Cc1cc(N(C)C)nc(N[C@H]2CC[C@@H](NC(=O)c3ccc(OC(F)(F)F)cc3)CC2)n1 [compound 2989, N-(cis-4-{[4-(dimethylamino)-6-methylpyrimidin-2-yl]amino}cyclohexyl)-4-(trifluoromethoxy)benzamide]",3 (Class 3 The value of percent of control at 10^−7 M was more than 60% or the value of IC50 was more than 200 nM.)
2,"Cc1cc(N(C)C)nc(N[C@H]2CC[C@@H](NC(=O)c3ccc(F)cc3)CC2)n1 [compound 2990, N-(cis-4-{[4-(dimethylamino)-6-methylpyrimidin-2-yl]amino}cyclohexyl)-4-fluorobenzamide]",1 (Class 1: The value of percent of control at 10^−7 M was less than 40% or the value of IC50 was less than 50 nM.)
3,"COc1cc(C(=O)N[C@H]2CC[C@@H](Nc3nc(C)cc(N(C)C)n3)CC2)cc(OC)c1OC [compound 2991, N-(cis-4-{[4-(dimethylamino)-6-methylpyrimidin-2-yl]amino}cyclohexyl)-3,4,5-trimethoxybenzamide]",1 (Class 1: The value of percent of control at 10^−7 M was less than 40% or the value of IC50 was less than 50 nM.)
4,"Cc1cc(N(C)C)nc(NC2CCC(NC(=O)c3cccc([N+](=O)[O-])c3)CC2)n1 (stereo not shown) [compound 2992, N-(4-{[4-(dimethylamino)-6-methylpyrimidin-2-yl]amino}cyclohexyl)-3-nitrobenzamide]",1 (Class 1: The value of percent of control at 10^−7 M was less than 40% or the value of IC50 was less than 50 nM.)
5,"Cc1cc(N(C)C)nc(N[C@H]2CC[C@@H](NC(=O)C(c3ccccc3)c3ccccc3)CC2)n1 [compound 2993, N-(cis-4-{[4-(dimethylamino)-6-methylpyrimidin-2-yl]amino}cyclohexyl)-2,2-diphenylacetamide]",1 (Class 1: The value of percent of control at 10^−7 M was less than 40% or the value of IC50 was less than 50 nM.)
6,"Cc1cc(N(C)C)nc(N[C@H]2CC[C@@H](NC(=O)c3ccc(Cl)c(Cl)c3)CC2)n1 [compound 2994, 3,4-dichloro-N-(cis-4-{[4-(dimethylamino)-6-methylpyrimidin-2-yl]amino}cyclohexyl)benzamide]",1 (Class 1: The value of percent of control at 10^−7 M was less than 40% or the value of IC50 was less than 50 nM.)
7,"Cc1cnc(N[C@H]2CC[C@@H](NS(=O)(=O)c3ccccc3)CC2)nc1N(C)C [compound 2995, N-(cis-4-{[4-(dimethylamino)-5-methylpyrimidin-2-yl]amino}cyclohexyl)benzenesulfonamide]",3 (Class 3 The value of percent of control at 10^−7 M was more than 60% or the value of IC50 was more than 200 nM.)
8,Cc1ccc(CN[C@H]2CC[C@@H](Nc3ncc(C)c(N(C)C)n3)CC2)cc1 [compound 2996],3 (Class 3 The value of percent of control at 10^−7 M was more than 60% or the value of IC50 was more than 200 nM.)
9,Cc1cnc(N[C@H]2CC[C@@H](NCc3ccc(F)c(F)c3)CC2)nc1N(C)C [compound 2997],3 (Class 3 The value of percent of control at 10^−7 M was more than 60% or the value of IC50 was more than 200 nM.)
10,Cc1cnc(N[C@H]2CC[C@@H](NCc3cccc(Cl)c3)CC2)nc1N(C)C [compound 2998],3 (Class 3 The value of percent of control at 10^−7 M was more than 60% or the value of IC50 was more than 200 nM.)
11,Cc1cnc(N[C@H]2CC[C@@H](NCc3cccc(Br)c3)CC2)nc1N(C)C [compound 2999],3 (Class 3 The value of percent of control at 10^−7 M was more than 60% or the value of IC50 was more than 200 nM.)
12,COc1cc(CN[C@H]2CC[C@@H](Nc3ncc(C)c(N(C)C)n3)CC2)cc(OC)c1 [compound 3000],2 (Class 2: The value of percent of control at 10^−7 M was from 40% to 60% or the value of IC′50 was from 50 nM to 200 nM.)
13,Cc1cnc(N[C@H]2CC[C@@H](NCc3cc(Cl)cc(Cl)c3)CC2)nc1N(C)C [compound 3001],3 (Class 3 The value of percent of control at 10^−7 M was more than 60% or the value of IC50 was more than 200 nM.)
14,Cc1cnc(N[C@H]2CC[C@@H](NCc3ccc(Cl)c(Cl)c3)CC2)nc1N(C)C [compound 3002],3 (Class 3 The value of percent of control at 10^−7 M was more than 60% or the value of IC50 was more than 200 nM.)
15,COc1ccc(CN[C@H]2CC[C@@H](Nc3ncc(C)c(N(C)C)n3)CC2)cc1C [compound 3003],3 (Class 3 The value of percent of control at 10^−7 M was more than 60% or the value of IC50 was more than 200 nM.)
16,Cc1cnc(N[C@H]2CC[C@@H](NCc3cccc(OC(F)(F)F)c3)CC2)nc1N(C)C [compound 3004],3 (Class 3 The value of percent of control at 10^−7 M was more than 60% or the value of IC50 was more than 200 nM.)
17,Cc1cc(N(C)C)nc(N[C@H]2CC[C@@H](NCc3cccc(OC(F)(F)F)c3)CC2)n1 [compound 3005],3 (Class 3 The value of percent of control at 10^−7 M was more than 60% or the value of IC50 was more than 200 nM.)

row,Structure (SMILES),class
1,CN(C)c1nc(N[C@H]2CC[C@@H](NC(=O)c3ccc(F)c(F)c3)CC2)ncc1C(F)(F)F [compound 3006],3 (Class 3 The value of percent of control at 10^−7 M was more than 60% or the value of IC50 was more than 200 nM.)
2,Cc1cnc(N[C@H]2CC[C@@H](CNC(=O)c3cccnc3Oc3ccc(Br)cc3)C2)nc1N(C)C [compound 3012],2 (Class 2: The value of percent of control at 10^−7 M was from 40% to 60% or the value of IC′50 was from 50 nM to 200 nM.)
3,COc1ccccc1Oc1ncccc1C(=O)NC[C@@H]1CC[C@H](Nc2ncc(C)c(N(C)C)n2)C1 [compound 3013],1 (Class 1: The value of percent of control at 10^−7 M was less than 40% or the value of IC50 was less than 50 nM.)
4,Cc1cnc(N[C@H]2CC[C@@H](CNC(=O)c3cccnc3Oc3ccccc3Br)C2)nc1N(C)C [compound 3014],3 (Class 3 The value of percent of control at 10^−7 M was more than 60% or the value of IC50 was more than 200 nM.)
5,Cc1cnc(N[C@H]2CC[C@@H](CNC(=O)c3cccnc3Oc3ccccc3F)C2)nc1N(C)C [compound 3015],1 (Class 1: The value of percent of control at 10^−7 M was less than 40% or the value of IC50 was less than 50 nM.)
6,Cc1cnc(N[C@H]2CC[C@@H](CNC(=O)c3cccnc3Oc3cccc(F)c3)C2)nc1N(C)C [compound 3017],3 (Class 3 The value of percent of control at 10^−7 M was more than 60% or the value of IC50 was more than 200 nM.)
7,Cc1cnc(N[C@H]2CC[C@@H](CNC(=O)c3cccnc3Oc3cccc(Cl)c3)C2)nc1N(C)C [compound 3018],3 (Class 3 The value of percent of control at 10^−7 M was more than 60% or the value of IC50 was more than 200 nM.)
8,Cc1cnc(N[C@H]2CC[C@@H](CNC(=O)c3cccnc3Oc3ccc(F)c(Cl)c3)C2)nc1N(C)C [compound 3019],2 (Class 2: The value of percent of control at 10^−7 M was from 40% to 60% or the value of IC′50 was from 50 nM to 200 nM.)
9,Cc1cnc(N[C@H]2CC[C@@H](CNC(=O)c3cccnc3Oc3ccc(Cl)c(F)c3)C2)nc1N(C)C [compound 3020],3 (Class 3 The value of percent of control at 10^−7 M was more than 60% or the value of IC50 was more than 200 nM.)
10,"Cc1cnc(N[C@H]2CC[C@@H](NC(=O)N(C)c3cccc(Cl)c3)CC2)nc1N(C)C [compound 3021, N-(3-chlorophenyl)-N′-(cis-4-{[4-(dimethylamino)-5-methylpyrimidin-2-yl]amino}cyclohexyl)-N-methylurea]",1 (Class 1: The value of percent of control at 10^−7 M was less than 40% or the value of IC50 was less than 50 nM.)
11,"Cc1cnc(N[C@H]2CC[C@@H](NC(=O)N(C)c3ccc(Cl)c(Cl)c3)CC2)nc1N(C)C [compound 3022, N-(3,4-dichlorophenyl)-N′-(cis-4-{[4-(dimethylamino)-5-methylpyrimidin-2-yl]amino}cyclohexyl)-N-methylurea]",1 (Class 1: The value of percent of control at 10^−7 M was less than 40% or the value of IC50 was less than 50 nM.)
12,"Cc1cccc(N(C)C(=O)N[C@H]2CC[C@@H](Nc3ncc(C)c(N(C)C)n3)CC2)c1 [compound 3023, N′-(cis-4-{[4-(dimethylamino)-5-methylpyrimidin-2-yl]amino}cyclohexyl)-N-methyl-N-(3-methylphenyl)urea]",1 (Class 1: The value of percent of control at 10^−7 M was less than 40% or the value of IC50 was less than 50 nM.)
13,"Cc1ccc(N(C)C(=O)N[C@H]2CC[C@@H](Nc3ncc(C)c(N(C)C)n3)CC2)cc1 [compound 3024, N′-(cis-4-{[4-(dimethylamino)-5-methylpyrimidin-2-yl]amino}cyclohexyl)-N-methyl-N-(4-methylphenyl)urea]",1 (Class 1: The value of percent of control at 10^−7 M was less than 40% or the value of IC50 was less than 50 nM.)
14,"Cc1cnc(N[C@H]2CC[C@@H](NC(=O)N(C)c3cccc(F)c3)CC2)nc1N(C)C [compound 3025, N′-(cis-4-{[4-(dimethylamino)-5-methylpyrimidin-2-yl]amino}cyclohexyl)-N-(3-fluorophenyl)-N-methylurea]",1 (Class 1: The value of percent of control at 10^−7 M was less than 40% or the value of IC50 was less than 50 nM.)
15,"Cc1cnc(N[C@H]2CC[C@@H](NC(=O)N(C)c3ccc(F)cc3)CC2)nc1N(C)C [compound 3026, N′-(cis-4-{[4-(dimethylamino)-5-methylpyrimidin-2-yl]amino}cyclohexyl)-N-(4-fluorophenyl)-N-methylurea]",1 (Class 1: The value of percent of control at 10^−7 M was less than 40% or the value of IC50 was less than 50 nM.)
16,"Cc1cnc(N[C@H]2CC[C@@H](NC(=O)N(C)c3ccc(Cl)cc3)CC2)nc1N(C)C [compound 3027, N-(4-chlorophenyl)-N′-(cis-4-{[4-(dimethylamino)-5-methylpyrimidin-2-yl]amino}cyclohexyl)-N-methylurea]",1 (Class 1: The value of percent of control at 10^−7 M was less than 40% or the value of IC50 was less than 50 nM.)
17,"COc1cccc(N(C)C(=O)N[C@H]2CC[C@@H](Nc3ncc(C)c(N(C)C)n3)CC2)c1 [compound 3028, N′-(cis-4-{[4-(dimethylamino)-5-methylpyrimidin-2-yl]amino}cyclohexyl)-N-(3-methoxyphenyl)-N-methylurea]",1 (Class 1: The value of percent of control at 10^−7 M was less than 40% or the value of IC50 was less than 50 nM.)

# Reference: patent US20050197350A1, “Novel quinoline, tetrahydroquinazoline, and pyrimidine derivatives and methods of treatment related to the use thereof” (TAISHO PHARMACEUTICAL CO., LTD., priority 2003, published 2005)
